Assay results as given in US20180282271A1, “ANTIBIOTIC AMINO ACID MIMETICS” (priority 2017, published 2018).
Values after ≈ are worked out from the molar mass of the structure shown. Values joined by “and” are separate entries in the source; they are usually repeats but may differ in a detail not shown here. Equal values may be shown once. Where a name gives a salt, the structure may show the parent alone. Where a SMILES comes first, the peptide text is derived from it. [ ]: non-standard residue; d: D form. The star is where a group is joined. ξ: configuration not given here. ξF = NC(Cc1ccccc1)C(=O)O; NHOH = ON*

Columns and labels:
[1] = system: Enterococcus faecalis MMX 101/ATCC 29212; assay: Broth microdilution MIC, standard CLSI media, ATCC QC organism; type: cell-based
Description: (§1) The test organisms were originally received from clinical sources or from the American Type Culture Collection (ATCC, Manassas, Va.). When received, the organisms were subcultured onto an appropriate agar medium. Following incubation, colonies were harvested from the plate and a cell suspension was prepared in broth containing cryoprotectant and frozen at −80° C. Prior to the assay, a frozen vial of the culture was partially thawed and the contents were streaked for isolation onto an appropriate growth medium. The agar plates were incubated overnight at 35° C. Test organisms included staphylococci and enterococci (Table 1), streptococci (Table 2), Enterobacteriaceae (Table 3), lactose non-fermenting Gram-negative bacilli (Table 4), Haemophilus influenzae (Table 5), Neisseria gonorrhoeae (Table 5), and Clostridium difficile (Table 6).
(§2) The standard CLSI broth medium was employed for the purposes of quality control of the comparator drugs for the MIC assay and was only used for testing of relevant ATCC quality control isolates as established by CLSI (1-5).
(§3) MIC values were determined using a broth microdilution method as recommended by CLSI (1-5).
(§4) Column 1 was filled with 300 μL of the investigational and control agents at the appropriate stock concentration (40× of the highest test concentration). The Biomek 2000 was used to make eleven 2-fold serial dilutions to create a “mother plate.” The wells of column 12 contained no drug and served as growth control wells.
(§5) The daughter plates were prepared on the Biomek FX instrument which transferred 5 μL of drug solution from each well of the mother plate to the corresponding well of each daughter plate in a single step.
(§6) Standardized inoculum of each organism was prepared per CLSI methods (1-5). The inoculum for each organism was dispensed into sterile reservoirs divided by length (Beckman Coulter), and the Biomek 2000 was used to inoculate the plates. Daughter plates were placed on the Biomek 2000 work surface reversed so that inoculation took place from low to high drug concentration. The Biomek 2000 delivered 10 PL of standardized inoculum into each well resulting in a target inoculum size of approximately 5×10^5 CFU/mL. The wells of the daughter plates ultimately contained 185 μL of media, 5 μL of drug solution at 40× the test concentration, and 10 μL of bacterial inoculum prepared in media.
(§7) Plates were stacked 3-4 high, covered with a lid on the top plate, placed into plastic bags, and incubated at 35° C. under the appropriate conditions, with C. difficile incubated anaerobically. Plates were viewed post-incubation at 18-24 hr and again at 48 hr from the bottom using a plate viewer. […] MICs were read where visible growth of the organism was inhibited.

[2] = system: Neisseria gonorrhoeae MMX 683/ATCC 49226; assay: as above; type: cell-based
Description: as §1, §2, §3, §4, §5, §6, §7

[3] = system: Pseudomonas aeruginosa MMX 103/ATCC 27853; assay: as above; type: cell-based
Description: as §1, §2, §3, §4, §5, §6, §7

[4] = system: Escherichia coli MMX 102/ATCC 25922; assay: as above; type: cell-based
Description: as §1, §2, §3, §4, §5, §6, §7

[5] = system: Clostridium difficile MMX 4381/ATCC 700057; assay: as above; type: cell-based; conditions: Clostridioides difficile, ATCC700057, 48 hr results
Description: as §1, §2, §3, §4, §5, §6, §7

E. coli (ATTC 8739) = assay: Zone of inhibition test; type: cell-based
Description: Compound A was tested against L-phenylalanine-(S)-2-amino-N-hydroxy-4-(methylthio)butanamide hydrochloride (Example 3) in a side-by-side comparison in a conventional zone of inhibition test. In this test, both compounds were compared at various concentrations against E. coli (ATTC 8739) grown in a Petri dish using the antibiotic kanamycin as a control.

[6] = system: Escherichia coli UNT116-1 (ATCC25922); assay: Murine superficial skin infection model; type: in vivo, mice; conditions: for Mean log10 CFU/wound: 50 uL topical +4, 8, 12, 16 & 20 hr, sampled +24 hr
Description: Evaluation of high dose of novel test article(s) for the treatment of a superficial skin infection in mice caused by Escherichia coli. […] Strain has been previously used separately for this infection at […]. Female 5-6 week old CD-1 (18-22 gm) were used in the studies. The mice were housed in groups of 5 with free access to food and water during the study. Cytoxan 150 mg/kg@15 mg/mL on Day-4 ONLY. The mice were anesthetized and kept sedated during the initial procedure under isoflurane vapors (3%). The fur on the back dorsal surface was shaved using electric clippers followed by 'wet shaving' with a disposable razor. The skin was then sterilized with a betadine wash followed by alcohol swab. An area of the shaved skin was then abraded utilizing a sterile gauze pad. Following this procedure, the skin became visibly damaged and characterized by reddening and glistening but no bleeding. […] The skin was then wiped with an alcohol swab and allowed to dry completely. After stripping of the skin, a bacterial infection was initiated by placing on the skin a 5-10 μL droplet containing approximately […] of both bacterium concentrated from overnight cultures in stationary phase. [table] Sponsors test articles were prepared in 0.05% methylcellulose. Fresh formulations were prepared for each day of dosing. The first application of each compound (N=10 mice/group) to the stripped skin of the mice was at 4 hr post-infection then continued q4 hr. For each treatment 50 uL of formulation was applied. Infection control groups' untreated mice were included with each experiment. The test was terminated 4 h after the last topical treatment. Immediately after the mice were euthanized (photographs of the wounds were taken for each group), the wounds, approximately 2 cm2, were excised, rinsed in sterile PBS and homogenized together with 2 ml of phosphate-buffered saline in a Polytron tissue homogenizer. The homogenates were washed once in phosphate-buffered saline to decrease the concentration of ointment. Suitable dilutions of the homogenates were plated on appropriate agar (with the addition of charcoal to avoid the effects of antibiotic carryover) for the organism to determine the number of living bacteria (CFU).

[7] = Study #2, test articles 700 mg/mL, gentamicin 0.30%
[8] = Study #2, test articles 700 mg/mL, gentamicin 0.30%, topical, +24 hr

Compound: C/C(=C\C(=O)OCCCCCCCCC(=O)O)C[C@@H]1OC[C@H](C[C@@H]2O[C@H]2[C@@H](C)[C@H](C)O)[C@@H](O)[C@H]1O [MUP, mupirocin]
- MIC ([1]; ATCC29212, 24 hr results): 256 µg/mL (≈ 511 µM)
- MIC ([1]; ATCC29212, 48 hr results): > 256 µg/mL
- MIC ([2]; ATCC49226, 24 hr results): > 256 µg/mL
- MIC ([2]; ATCC49226, 48 hr results): > 256 µg/mL
- MIC ([3]; ATCC27853, 24 hr results): > 256 µg/mL
- MIC ([3]; ATCC27853, 48 hr results): > 256 µg/mL
- MIC ([4]; ATCC25922, 24 hr results): > 256 µg/mL
- MIC ([4]; ATCC25922, 48 hr results): > 256 µg/mL
- MIC [5]: > 256 µg/mL

Compound: CSCC[C@H](NC(=O)C(N)Cc1ccccc1)C(=O)NO (stereo partly drawn) [Example 3, L-phenylalanine-(S)-2-amino-N-hydroxy-4-(methylthio)butanamide hydrochloride] (H-[ξF]-Met-{NHOH})
- concentration at which a zone of inhibition was shown (E. coli (ATTC 8739); E. coli grown in a Petri dish, FIG. 1A/1B): 12.5 µg
- strength of the zone of inhibition, in words (E. coli (ATTC 8739); cpd. A at 50 μg, Ex. 3 at 12.5 μg): substantially stronger than the zone of inhibition for cpd. A at 50 μg

Compound: Gentamicin
- Mean log10 CFU/wound ([6]; Study #1, test articles 500 mg/mL, gentamicin 0.30%, wounds wrongly sprayed with 70% EtOH for test articles): 2.35 log10 CFU/wound
- Mean log10 Change vs. +24 hr ([6]; Study #1, test articles 500 mg/mL, gentamicin 0.30%, topical, +24 hr): −5.37 log10
- reduction of bacterial skin burden compared to the 24 hour untreated control [6, 7]: 5.98 log10 CFU/wound
- Mean log10 CFU/wound [6, 7]: 2.46 log10 CFU/wound
- Log 10 CFU/wound, individual animal [6, 8]: 2.83 Log 10 CFU/wound and 2.35 Log 10 CFU/wound (8×) and 2.95 Log 10 CFU/wound
- Mean log10 Change vs. +4 hr [6, 8]: −1.36 log10
- Mean log10 Change vs. +24 hr [6, 8]: −5.98 log10
- 95.00% CI of diff., Tukey's multiple comparisons test ([6]; Study #2, vs. +4 hr Infection Control): −2.209 to −0.5115
- 95.00% CI of diff., Tukey's multiple comparisons test ([6]; Study #2, vs. +24 hr Infection control): −6.678 to −5.292
